Reference: publication PMC12275099, “VX-445 (elexacaftor) inhibits chloride secretion across human bronchial epithelial cells by directly blocking KCa3.1 channels” (PNAS Nexus, 2025)

System: corrected F508del CFTR-expressing HBEs
Test: Ussing chamber Isc, forskolin plus VX-770-stimulated Cl- secretion
Assay type: cell-based, human
Procedure: It has been proposed that, similar to potentiation of basolateral KCa3.1, potentiation of apical BKCa would further stimulate Cl^− secretion across HBEs by increasing the electrochemical driving force for Cl^− exit across the apical membrane ([18], [19]). To assess this possibility, we determined whether acute addition of VX-445 affects forskolin-mediated Cl^− secretion across primary WT CFTR-expressing HBEs, using Isc measurements. […] Note, as VX-445 is a lipophilic compound, it was added to both apical and basolateral membranes. The addition of bumetanide (20 µM) further reduced Isc, as expected. […] In a total of nine filters from three separate donors, VX-445 inhibited an average of 47 ± 2% of the current, subsequent to VX-661 (P < 0.01). […] The current observed following forskolin stimulation consists of both bumetanide-sensitive Cl^− secretion and bumetanide-insensitive HCO3− secretion ([32–34]). Thus, we determined whether VX-445 would inhibit the remaining current subsequent to bumetanide. […] Given the surprising inhibition of Cl^− secretion observed, we chose to stimulate Cl^− secretion via an alternate mechanism and assess the effect of VX-445. […] Thus, we determined the effect of VX-445 on the DCEBIO-induced Cl^− secretory response. […] We next determined whether VX-445 would similarly decrease the forskolin-stimulated transepithelial Cl^− currents in corrected F508del HBEs. […]

## Cc1nn(C)cc1S(=O)(=O)NC(=O)c1ccc(-n2ccc(OCC(C)(C)C(F)(F)F)n2)nc1N1C[C@@H](C)CC1(C)C [VX-445, elexacaftor]
Fig 1J, single filters, VX-445 10 µM after forskolin/VX-770
  Isc in the presence of VX-445: 10
Acute VX-445 10 µM, F508del corrected overnight with VX-445 1 µM plus VX-661 3 µM, 35 filters from five donors
  decrease in forskolin plus VX-770-stimulated Isc: 64 ± 2%
